Reference: patent publication US11484525B2 (priority 2015, dated 2022)
Entries after “also recorded” stand apart in the source; their conditions may differ.

How the values were obtained:
μOR [1] = target: T1, μOR (Homo sapiens (Human), UniProt P35372); test: BRET-based cAMP accumulation assay (CAMYEL) for SAR of PZM21-29; type: cell-based; conditions: Gi/o signaling, FIG. 4 analogs
μOR [2] = target: T1, μOR; test: Radioligand competition binding vs 3H-diprenorphine at μOR
μOR [3] = target: T1, μOR; type: cell-based
κOR [4] = target: T2, κOR (Homo sapiens (Human), UniProt P41145); test: Radioligand binding at κOR (PDSP); conditions: Table 2; no Ki, below 50%
MOR = MOR (Homo sapiens (Human), UniProt P35372); test: MOR functional annotations (method not given); conditions: for functional classification given with the label: binding table, compound cell; for MOR agonist (potency annotation under structure): Table 4 caption line
hMOR + Gqi5 = hMOR + Gqi5 (Homo sapiens (Human), UniProt P35372); test: IP accumulation assay hMOR + Gqi5; type: cell-based; conditions: % morphine, at 10 μM
μOR [5] = target: T1, μOR; test: β-arrestin2 recruitment by BRET without GRK2; type: cell-based; conditions: no GRK2
μOR [6] = target: T1, μOR; test: β-arrestin2 recruitment by BRET with GRK2 co-expression; type: cell-based
mice [7] = test: Whole body plethysmography (respiration); conditions: equianalgesic doses: PZM21 40 mg/kg, TRV130 […], morphine 10 mg/kg
μOR [8] = target: T1, μOR; test: Radioligand depletion assay for irreversible binding, wild-type μOR
C57BL/6J mice [9] = test: Hot-plate analgesia; type: in vivo, mouse
C57BL/6J mice [10] = test: Tail-flick analgesia; conditions: mouse, in vivo
μOR [11] = target: T1, μOR; test: Receptor internalization (PathHunter, U2OS); type: cell-based; conditions: compared to DAMGO and morphine
nociceptin receptor = nociceptin receptor (Homo sapiens (Human), UniProt P41146); test: Gi/o Glosensor assay at nociceptin receptor; type: cell-based
μOR [12] = target: T1, μOR; test: Calcium release (FLIPR); type: cell-based
Procedure: Calcium release was measured using a FLIPR^TETRA fluorescence imaging plate reader (Molecular Devices). Calcium release experiments were run in parallel to Gi/o Glosensor experiments with the same HEKT cells transfected with μOR, except cells for FLIPR were plated in poly-lysine coated 384-well black clear bottom cell culture plates. […] Dye was incubated for 1 hour at 37° C. Afterwards, cells were equilibrated to room temperature, and fluorescence in each well was read for the initial 10 seconds to establish a baseline. Afterwards, 10 μL of drug (3×) was added per well and the maximum-fold increase in fluorescence was determined as fold-over-baseline. Drug solutions used for the FLIPR assay were exactly the same as used for Gi/o Glosensor experiments. To activate endogenous Gq-coupled receptors as a positive control for calcium release, TFLLR-NH2 (10 μM, PAR-1 selective agonist) was used.

[13] = system: Oprm1−/− and wild-type C57Bl/6J mice; test: Hot plate: affective/reflexive subcategorization and μOR knockout mice; type: in vivo, mouse
μOR [14] = target: T1, μOR; test: β-arrestin recruitment, PathHunter enzyme complementation (OPRM1 CHO-K1); type: cell-based
[15] = Metabolism by mouse liver microsomes; type: in vitro ADME; conditions: signaling experiments with resulting metabolite pool
κOR [16] = target: T2, κOR; test: Gi/o Glosensor assay at κOR; type: cell-based
mice [17] = test: Formalin injection assay; conditions: mouse, in vivo
[18] = Pharmacokinetics, serum and brain levels; conditions: mouse, in vivo
Procedure: Studies were performed by the Preclinical Therapeutics Core and the Drug Studies Unit at the University of California San Francisco. […] All studies were performed with approved mouse protocols from the institutional animal care and use committees.

## CN(C=O)[C@H](CNC(=O)NCCc1ccccc1)Cc1ccc(O)cc1 [PZM28, (S)—N-(1-(4-Hydroxyphenyl)-3-(3-phenethylureido)propan-2-yl)-N-methylformamide]
μOR [1]
  loss of potency relative to parent: 1000 fold

## O=C(Cc1cn2ccccc2n1)NCC1(c2ccccc2)CCC1 [Compound 9]
μOR [2]
  μOR Ki column, given as <50%: <50%

## C[C@H](Cc1ccsc1)NC(=O)NC[C@H](Cc1ccc(O)cc1)N(C)C [(S,R)-21, 1-[(S)-2-(Dimethylamino)-3-(4-hydroxyphenyl)propyl]-3-((R)-1-(thiophen-3-yl)propan-2-yl)urea]
μOR [3]
  Gi/o activation / μOR agonist activity: more potent partial agonist of the μOR

## CN(C)[C@@H](CNC(=O)NC[C@@H](O)c1cnn(C)c1)Cc1ccccc1 [Compound 11]
κOR [4]
  κOR Ki, given as <50%: <50%

## Cc1cc(O)cc(C)c1C[C@@H](CNC(=O)NCCN1C(=O)C=CC1=O)N(C)C [DD 144, (S)-1-(2-(dimethylamino)-3-(4-hydroxy-2,6-dimethylphenyl)propyl)-3-(2-(2,5-dioxo-2,5-dihydro-1H-pyrrol-1-yl)ethyl)urea]
MOR
  functional classification given with the label: DD 144 (ANTAGONIST, Covalent) [drawing 455]

## Cc1cc(O)cc(C)c1C[C@@H](CNC(=O)NCCc1ccsc1)N(C)C [DD 34L, (S)-1-(2-(dimethylamino)-3-(4-hydroxy-2,6-dimethylphenyl)propyl)-3-(2-(thiophen-3-yl)ethyl)urea]
MOR
  functional classification given with the label: DD 34L (ANTAGONIST) [drawing 449]

## Cc1nc(CNC(=O)NC[C@@H](Cc2ccccc2)N(C)C)sc1C [Compound 15]
κOR [4]
  κOR Ki, given as <50%: <50%

## CN(CC1CC1)[C@H](CNC(=O)NCCc1ccccc1)Cc1ccc(O)cc1 [PZM27, (S)-1-(2-((Cyclopropylmethyl)(methyl)amino)-3-(4-hydroxyphenyl)propyl)-3-phenethylurea×CF3COOH]
μOR [1]
  efficacy and potency as agonist: decreased efficacy
  loss of potency relative to parent: 30 fold

## CN(C)[C@H](CNC(=O)NCCc1ccsc1)Cc1ccc(O)cc1 [DD 16, (S)-1-(2-(dimethylamino)-3-(4-hydroxyphenyl)propyl)-3-(2-(thiophen-3-yl)ethyl)urea]
MOR
  MOR agonist (potency annotation under structure): (23) 58 nM MOR agonist

## CN(Cc1nnc(C2CC2)n1C)C(=O)NC[C@@H](Cc1ccccc1)N(C)C [Compound 10]
κOR [4]
  κOR Ki, given as <50%: <50%

## Cc1cc(O)cc(C)c1C[C@@H](CNC(=O)N[C@H](C)Cc1ccsc1)N(C)C [BD 131LR, 1-((S)-2-(dimethylamino)-3-(4-hydroxy-2,6-dimethylphenyl)propyl)-3-((R)-1-(thiophen-3-yl)propan-2-yl)urea]
hMOR + Gqi5
  hMOR + Gqi5 IP accumulation assay efficacy a @ 10 μM: @ 10 μMa: 10%

## COc1ccsc1CNCC[C@@]1(c2ccccn2)CCOC2(CCCC2)C1 [TRV130, reference compound]
μOR [5]
  β-arrestin2 recruitment in the absence of GRK2: no β-arrestin2 recruitment
μOR [6]
  arrestin recruitment with over-expressed GRK2: we observe arrestin recruitment
Mice [7]
  respiration frequency / respiratory depression: significantly depresses respiration at 15 minutes

## CN(C)[C@H](CNC(=O)NCCc1cn(CCSSCCN=[N+]=[N-])nn1)Cc1ccc(O)cc1 [PZM29, (S)-1-(2-(1-(2-((2-Azidoethyl)disulfanyl)ethyl)-1H-1,2,3-triazol-4-yl)ethyl)-3-(2-(dimethylamino)-3-(4-hydroxyphenyl)propyl)urea×CF3COOH]
μOR [1]
  efficacy and potency as agonist: retains its efficacy as an agonist
μOR [8]
  irreversible binding to wild-type μOR: not the wild-type receptor

## CC(C)[C@H](CNC(=O)c1ccc([N+](=O)[O-])s1)N1CCc2ccccc2C1 [Compound 8]
μOR [3]
  Gi/o activation / μOR agonist activity: activated Gi/o

## C[C@@H](Cc1ccsc1)NC(=O)NC[C@H](Cc1ccccc1)N(C)C [(S,S)-12, 1-[(S)-2-(Dimethylamino)-3-phenylpropyl]-3-[(S)-1-(thiophen-3-yl)propan-2-yl]urea]
MOR
  MOR agonist (potency annotation under structure): (S,S)-12 12 nM MOR agonist

## C[C@@H](Cc1ccsc1)NC(=O)NC[C@H](Cc1ccc(O)cc1)N(C)C [PZM21, 1-[(S)-2-(Dimethylamino)-3-(4-hydroxyphenyl)propyl]-3-((S)-1-(thiophen-3-yl)propan-2-yl)urea]
C57BL/6J mice [9]; 15 minutes after highest dose tested, s.c.
  hot-plate % MPE: 87%
C57BL/6J mice [9]; mouse, in vivo
  hot-plate analgesia: dose-dependent analgesia
C57BL/6J mice [10]
  tail-flick analgesia: no activity; also recorded: no analgesic effect
μOR [11]
  μOR internalization: minimal level
Nociceptin receptor
  nociceptin receptor agonist activity: no detectable
μOR [12]
  calcium release: no activity
[13]; Oprm1−/− mice, hot plate
  analgesic response in μOR knockout mice: completely ablates
[13]; hot plate 52.5° C.
  affective vs reflexive component of pain: only modulates the affective component of pain; also recorded: solely confers analgesia to the affective component of pain
μOR [14]
  β-arrestin2 recruitment in PathHunter assay: undetectable; also recorded: minimal recruitment; also recorded: no detectable
[15]
  μOR activation by metabolite pool: no evidence of a metabolite with more potent activation of the μOR
κOR [16]
  κOR agonist activity: no detectable
κOR [16]; antagonist mode
  mode of action at κOR: antagonist
μOR [5]
  β-arrestin2 recruitment in the absence of GRK2: no β-arrestin2 recruitment
μOR [6]
  arrestin recruitment with over-expressed GRK2: weak arrestin recruitment efficacy; also recorded: we observe arrestin recruitment
Mice [17]
  formalin injection nociception: active
[18]
  blood brain barrier penetration: substantial fraction
